# Target: T1, Renin (Homo sapiens, UniProt P00797)
# T1 sequence (P00797 whole entry): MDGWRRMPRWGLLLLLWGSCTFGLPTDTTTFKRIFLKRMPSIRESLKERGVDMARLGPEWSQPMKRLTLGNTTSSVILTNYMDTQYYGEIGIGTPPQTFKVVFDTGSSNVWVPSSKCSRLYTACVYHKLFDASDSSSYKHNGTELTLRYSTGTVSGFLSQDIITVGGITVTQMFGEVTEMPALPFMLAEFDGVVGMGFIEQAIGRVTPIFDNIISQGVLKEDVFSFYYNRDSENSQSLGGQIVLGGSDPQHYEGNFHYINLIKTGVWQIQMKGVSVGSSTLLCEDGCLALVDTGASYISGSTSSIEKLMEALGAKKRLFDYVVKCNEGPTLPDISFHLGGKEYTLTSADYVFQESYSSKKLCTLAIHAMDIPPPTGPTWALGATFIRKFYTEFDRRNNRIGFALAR
# Experiment: The compound was evaluated in vitro for inhibition of human plasma renin at pH 7.4.
# Type: cell-free
row,Compound,IC50 [µM]
1,CC(C)(C)OC(=O)N[C@@H](Cc1ccccc1)C(=O)N[C@H]1CNC(=O)CCCOC(=O)[C@H](O)[C@H](CC2CCCCC2)NC1=O,9.2
2,CC(C)(C)OC(=O)N[C@@H](Cc1ccccc1)C(=O)N[C@H]1CCC(=O)NCCCOC(=O)[C@H](O)[C@H](CC2CCCCC2)NC1=O,7
3,CC(C)(C)OC(=O)N[C@@H](Cc1ccccc1)C(=O)N[C@H]1CCC(=O)NCCCC2(OCCO2)[C@H](O)[C@H](CC2CCCCC2)NC1=O,> 20
4,CC(C)(C)OC(=O)N[C@@H](Cc1ccccc1)C(=O)N[C@H]1CCC(=O)NCCOC(=O)[C@H](O)[C@H](CC2CCCCC2)NC1=O,0.61
5,CC(C)(C)OC(=O)N[C@@H](Cc1ccccc1)C(=O)N[C@H]1CNC(=O)CCCCOC(=O)[C@H](O)[C@H](CC2CCCCC2)NC1=O,0.59

# Results, then the molecule that gave them:
row,IC50 [µM],Compound
1,> 20,CC(C)(C)OC(=O)N[C@@H](Cc1ccccc1)C(=O)N[C@H]1CCC(=O)NCCC[C@@H](O)[C@H](O)[C@H](CC2CCCCC2)NC1=O
2,0.65,CC(C)(C)OC(=O)N[C@@H](Cc1ccccc1)C(=O)N[C@H]1CCC(=O)NCCC[C@H](O)[C@H](O)[C@H](CC2CCCCC2)NC1=O
3,14,CC(C)(C)OC(=O)N[C@@H](Cc1ccccc1)C(=O)N[C@H]1CCC(=O)NCCCC(=O)[C@H](O)[C@H](CC2CCCCC2)NC1=O

# Source: ChEMBL document CHEMBL1125196, “Design and synthesis of P2-P1'-linked macrocyclic human renin inhibitors” (J Med Chem, 1991)
